The source of these data is patent publication US20100130554A1, “USE OF 4-CYCLOPROPYLMETHOXY-N-(3,5-DICHLORO-1-OXIDOPYRIDIN-4-YL)-5-(METHOXY)PYRIDINE-2-CARBOXAMIDE FOR THE TREATMENT OF MOTOR DISORDERS RELATED TO PARKINSON'S DISEASE” (SANOFI-AVENTIS, priority 2007, published 2010).

For one data set, the system named is dopamine uptake sites. Description: Protection in a model of Parkinson's disease: dopaminergic neuron loss in mice poisoned with MPTP, striatal dopamine uptake sites quantified by GBR12935 binding. Format: in vivo. The following applies: MPTP-poisoned C57BL6 mice, striatum, gavage twice a day for 17 days, MPTP only = 58%, p<0.01 vs MPTP only. On the procedure:
The effects of the 4-cyclopropylmethoxy-N-(3,5-dichloro-1-oxidopyridin-4-yl)-5-(methoxy)pyridine-2-carboxamide used according to the invention were evaluated in mice using a model of dopaminergic neuron loss.
Protection in a Model of Parkinson's disease (Dopaminergic Neuron Loss in Mice Poisoned with MPTP (1-methyl-4-phenyl-1,2,3,6-tetrahydropyridine):
C57BL6 mice are given 4 intraperitoneal injections of 20 mg/kg of MPTP, each 2 hours apart. The 4-cyclopropylmethoxy-N-(3,5-dichloro-1-oxidopyridin-4-yl)-5-(methoxy)pyridine-2-carboxamide in solution in the carrier (methylcellulose (MC) (0.6%)+Tween-80 (0.5%)) is administered by gavage between the 2nd and 3rd injection of MPTP and just after the final injection of MPTP, and then twice a day for 17 days at the total daily doses of 0.015 and 0.050 mg/kg. Twenty-four hours after the final treatment, the striatum is removed and the dopamine uptake sites are quantified using a GBR12935 (1-[2-(diphenylmethoxy)ethyl]-4-(3-phenylpropyl)piperazine) binding method.

Another data set relates to ferrets. Description: Evaluation of the emetic effects in ferrets after oral gavage. Conditions: observed up to 6 hours. The class given is in vivo. As to the method:
The emetic capacity of 4-cyclopropylmethoxy-N-(3,5-dichloro-1-oxidopyridin-4-yl)-5-(methoxy)pyridine-2-carboxamide was evaluated in ferrets. Two groups of ferrets were used, the first being given the carrier (PEG200) and the second being given the 4-cyclopropylmethoxy-N-(3,5-dichloro-1-oxidopyridin-4-yl)-5-(methoxy)pyridine-2-carboxamide in solution in the carrier (PEG 200), by oral gavage. The animals were observed continually for 2 hours following administration, and then every hour until 6 hours after administration. The clinical signs (in particular, retching and vomiting) were noted.
The emetic capacity of (R)-(−)-rolipram was evaluated in the ferrets. Two groups of ferrets were used, the first being given the carrier (PEG200) and the second being given the […] in solution in the carrier (PEG 200), by oral gavage, at doses of 0.05 mg/kg and of 0.1 mg/kg. The animals were observed continually for the 2 hours following administration, and then once an hour up to 6 hours after the administration. The clinical signs were noted.

The conditions of data set [1]: cited from earlier work.
[2] abbreviates: oral gavage in PEG200, 0.1 mg/kg.

The structures appear in SMILES notation.

For the compound `COc1cnc(C(=O)Nc2c(Cl)c[n+]([O-])cc2Cl)cc1OCC1CC1` [4-cyclopropylmethoxy-N-(3,5-dichloro-1-oxidopyridin-4-yl)-5-(methoxy)pyridine-2-carboxamide], the “density of the dopamine uptake sites, % of the level observed in the normal animals” value is on record as 82% in the data set on dopamine uptake sites (total daily dose 0.015 mg/kg/d) and 85% with dopamine uptake sites (total daily dose 0.050 mg/kg/d). Moreover, in the data set on ferrets (setting [2]), the “emetic effects (retching and vomiting)” value is on record as “neither retching nor vomiting”.

With `COc1ccc([C@@H]2CNC(=O)C2)cc1OC1CCCC1` [(R)-(−)-rolipram, (4R)-4-[3-(cyclopentyloxy)-4-methoxyphenyl]pyrrolidine-2-one], the “emetic effects (retching and vomiting)” value was “induce vomiting” in the data set on ferrets (oral gavage in PEG200, 0.05 mg/kg) and “induce vomiting” in the data set on ferrets (setting [2]).

Consider `COc1ccc(C2CNC(=O)C2)cc1OC1CCCC1` (stereo not drawn) [rolipram], for which the “emetic effects in clinical studies” value in data set [1] was “induce emetic effects”.
